Earlier results in publication PMC9465641 (Frontiers in Pharmacology, 2022).

Set-up: method as in Wang et al., 2021; Chen et al., 2022
Details: range reported previously; ref Wang et al., 2021; Chen et al., 2022; cited from earlier work

Substance: polymyxin B
- CL: 1.59 to 2.86 L/h
